Laboratory results: publication PMC2346451 (PLoS ONE, 2008)
Read-outs that look alike come from different tables or passages of the source.

Assays:
[1] = system: chicken rat TRPV1 chimera (crcTRPV1, CRC V2–V4); experiment: Whole-cell patch clamp of chicken rat TRPV1 chimera in HEK-293T cells; assay type: cell-based; conditions: n = 6
Procedure: (§1) Transformed human embryonic kidney-293 (HEK-293T) cells were grown in Dulbecco's modified Eagle's medium (DMEM)+F-12 supplemented with 10% fetal calf serum, and 1% penicillin/streptomycin in 5% CO2 at 37°C. Cells grown to 90% confluence in 35 mm Petri dishes were transiently transfected with plasmid DNA encoding a TRP channel construct (1 µg). Rat TRPV1 (rTRPV1) was cloned into an enhanced green fluorescent protein-containing vector (pTracer-CMV2; Invitrogen, Carlsbad, CA). Chicken TRPV1 (cTRPV1), the chicken rat TRPV1 chimera (crcTRPV1), rat TRPV2 (rTRPV2), mouse TRPV3 (mTRPV3), mouse TRPV4 (mTRPV4), rat TRPM8 (rTRPM8), and rat TRPA1 (rTRPA1), were cloned into pcDNA3 and co-transfected with enhanced green fluorescent protein (0.1 µg) to follow expression. The cTRPV1 and crcTRPV1 clones were kindly provided by Dr. David Julius. Recordings were carried out 24–36 hours after transfection. Cells were split via trypsin EDTA, plated on glass coverslips at 5–10% confluence, and used 2–3 hours later.
Electrophysiological experiments were performed using the whole-cell patch-clamp technique at room temperature. […]
Recordings were obtained using an Axopatch 200B amplifier, Digidata 1322A analog-to-digital converter, and pClamp 8.01 software (Molecular Devices, Union City, CA). […] Cell capacitance was measured for each cell, and access resistance compensated to ∼80%. […]

mouse TRPV4 (mTRPV4) = target: T1, mouse TRPV4 (mTRPV4) (Mus musculus, UniProt Q9EPK8); experiment: Whole-cell patch clamp of mouse TRPV4 expressed in HEK-293T cells; assay type: cell-based; design: key to Agonist efficacy: Ø - not activated
T1 construct: expressed in transfected cells; host or cells: HEK-293T
Procedure: as §1
(§2) Electrophysiological experiments were performed using the whole-cell patch-clamp technique at room temperature. Modified Ringer's solution with low chloride and nominal calcium contained (in mM): 130 sodium hydroxide, 5 potassium chloride, 1 magnesium chloride, 10 sodium 4-(2-hydroxyethyl)-1-piperazineethanesulfonic acid, 10 2-(N-morpholino)ethanesulfonic acid, and 20 glucose (pH 7.4; 310 milli-osmolar). […] 2 mM calcium chloride was included in the external solution where noted. To activate TRPV1, the modified Ringer's solution was made at pH 5 (low pH solution) and the chloride concentration was kept to a minimum to prevent contamination of the TRPV1 currents with acid-activated chloride currents. For recordings from heterologously expressing cells, the internal pipette solution contained (in mM): 125 cesium-Methanesulfonate, 10 cesium (1.2-bis(o-aminophenoxy)ethane-N,N,N',N'-tetraacetic acid, 8 sodium chloride, 4 magnesium adenosine triphosphate, and 10 HEPES (pH 7.2; 290 mOSM; nominal free calcium concentrations). For TRPA1 and dorsal root ganglion recordings, the internal pipette solution contained (in mM): 110 cesium-Methanesulfonate, 0.5 cesium4BAPTA, 8 sodium chloride, 0.2 calcium chloride, 4 magnesium-ATP, 4 sodium-GTP, and 10 4-(2-hydroxyethyl)-1-piperazineethanesulfonic acid (pH 7.2; 290 mOSM; 100 nM free calcium internal). MaxChelator was used to calculate the free calcium concentration (http://www.stanford.edu/cpatton/maxc.html).
Recordings were obtained using an Axopatch 200B amplifier, Digidata 1322A analog-to-digital converter, and pClamp 8.01 software (Molecular Devices, Union City, CA). Data were low-pass filtered at 2 kHz and digitized at 5 kHz. Borosilicate glass pipettes (World Precision Instruments, Sarasota, FL) were typically 3 MΩ pipette resistance after fire polishing. Cell capacitance was measured for each cell, and access resistance compensated to ∼80%. Recordings were begun ∼5 minutes after initial rupture to ensure initial steady state conditions. Current-voltage (I-V) relations were obtained using a ramp protocol. Voltage ramps (400 ms) from −100 to +40 or +100 mV were applied every 1–2 seconds and the holding potential was either −70 mV or 0 mV (see Figure Legends). A 40 ms step was added at the beginning and end of the ramp (i.e. at −100 mV, +40 mV or +100 mV). Liquid junction potentials were not corrected. […]

[2] = no reference given; cited from earlier work
mouse TRPV3 (mTRPV3) = target: T2, mouse TRPV3 (mTRPV3) (Mus musculus, UniProt Q8K424); experiment: Whole-cell patch clamp of mouse TRPV3 expressed in HEK-293T cells; assay type: cell-based; conditions: for Increase of agonist-evoked current prior to onset of inhibition: citral 1 mM, n = 7
T2 sequence (Q8K424 1-791): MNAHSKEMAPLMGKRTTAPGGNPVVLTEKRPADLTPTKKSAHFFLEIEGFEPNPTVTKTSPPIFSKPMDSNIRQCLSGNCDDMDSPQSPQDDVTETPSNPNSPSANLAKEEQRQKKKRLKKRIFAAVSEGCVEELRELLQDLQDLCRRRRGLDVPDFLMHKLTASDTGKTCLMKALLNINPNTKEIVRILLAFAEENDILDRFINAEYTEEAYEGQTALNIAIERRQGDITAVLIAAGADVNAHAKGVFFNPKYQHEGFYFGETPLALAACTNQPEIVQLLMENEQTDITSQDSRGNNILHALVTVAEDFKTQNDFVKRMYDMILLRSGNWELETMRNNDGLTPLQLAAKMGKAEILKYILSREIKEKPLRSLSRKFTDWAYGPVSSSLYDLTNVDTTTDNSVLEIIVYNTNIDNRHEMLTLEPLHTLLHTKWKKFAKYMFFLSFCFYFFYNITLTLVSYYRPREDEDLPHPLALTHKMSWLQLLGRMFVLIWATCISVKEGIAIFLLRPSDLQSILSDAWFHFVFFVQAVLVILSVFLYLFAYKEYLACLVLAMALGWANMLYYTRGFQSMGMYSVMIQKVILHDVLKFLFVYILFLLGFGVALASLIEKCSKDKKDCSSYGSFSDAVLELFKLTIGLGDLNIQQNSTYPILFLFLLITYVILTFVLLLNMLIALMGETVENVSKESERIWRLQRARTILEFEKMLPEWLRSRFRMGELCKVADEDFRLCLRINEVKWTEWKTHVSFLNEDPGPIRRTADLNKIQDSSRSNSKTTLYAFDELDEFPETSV
Procedure: as §1, §2
Recordings were obtained using an Axopatch 200B amplifier, Digidata 1322A analog-to-digital converter, and pClamp 8.01 software (Molecular Devices, Union City, CA). Data were low-pass filtered at 2 kHz and digitized at 5 kHz. Borosilicate glass pipettes (World Precision Instruments, Sarasota, FL) were typically 3 MΩ pipette resistance after fire polishing. Cell capacitance was measured for each cell, and access resistance compensated to ∼80%. Recordings were begun ∼5 minutes after initial rupture to ensure initial steady state conditions. Current-voltage (I-V) relations were obtained using a ramp protocol. Voltage ramps (400 ms) from −100 to +40 or +100 mV were applied every 1–2 seconds and the holding potential was either −70 mV or 0 mV (see Figure Legends). A 40 ms step was added at the beginning and end of the ramp (i.e. at −100 mV, +40 mV or +100 mV). Liquid junction potentials were not corrected.
The dose response curves were fit with the Hill equation, where [drawing 8] and [A] is the concentration of agonist or blocker, N is the Hill coefficient, and KD is the [A] for Imeasured/Imax = 0.5. The term apparent dissociation constant is used in place of the half concentration of excitation and inhibition. […] Averaged data are presented as mean±standard error (S.E.) throughout. Statistical analysis included paired and unpaired Student's t-test comparisons of the data; p values are reported in the text.

[3] = in humans; cited from earlier work

T1 sequence (Q9EPK8 whole entry): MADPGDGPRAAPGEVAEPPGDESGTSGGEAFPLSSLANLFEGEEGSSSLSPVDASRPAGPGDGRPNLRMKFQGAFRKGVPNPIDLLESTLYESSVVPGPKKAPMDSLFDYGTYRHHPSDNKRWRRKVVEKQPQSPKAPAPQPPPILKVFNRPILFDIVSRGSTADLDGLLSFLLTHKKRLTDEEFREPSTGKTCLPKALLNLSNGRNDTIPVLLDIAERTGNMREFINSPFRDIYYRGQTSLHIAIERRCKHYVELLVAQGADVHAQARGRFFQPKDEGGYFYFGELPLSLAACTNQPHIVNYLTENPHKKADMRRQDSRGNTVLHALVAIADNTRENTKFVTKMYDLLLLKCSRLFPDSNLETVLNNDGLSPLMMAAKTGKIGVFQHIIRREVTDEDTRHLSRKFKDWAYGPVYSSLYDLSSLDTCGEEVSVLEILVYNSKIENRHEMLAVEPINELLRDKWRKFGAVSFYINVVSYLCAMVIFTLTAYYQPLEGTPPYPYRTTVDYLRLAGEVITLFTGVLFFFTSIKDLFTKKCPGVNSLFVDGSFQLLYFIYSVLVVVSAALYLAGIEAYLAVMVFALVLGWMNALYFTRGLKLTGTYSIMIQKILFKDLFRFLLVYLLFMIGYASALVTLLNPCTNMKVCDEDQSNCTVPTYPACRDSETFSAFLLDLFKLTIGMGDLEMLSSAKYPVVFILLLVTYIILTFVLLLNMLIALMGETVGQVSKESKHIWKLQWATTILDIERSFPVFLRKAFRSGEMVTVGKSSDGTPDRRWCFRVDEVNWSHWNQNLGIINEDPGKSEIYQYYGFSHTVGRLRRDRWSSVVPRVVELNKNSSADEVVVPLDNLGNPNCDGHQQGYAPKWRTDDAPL

In the case of `CC(C)=CCCC(C)=CC=O` [citral, 3,7-dimethyl-2,6-octadienal], the “Activation of CRC V2–V4 chimera currents” value [1] is reported as “restored citral activation”, the Agonist efficacy (mouse TRPV4 (mTRPV4)) is reported as “Ø” and the “Reversibility of citral inhibition of agonist-evoked current” value (mouse TRPV4 (mTRPV4); 4α-phorbol-12, 13-didecanoate-evoked) is reported as “rapidly reversed”. The “Effect of citral addition on agonist-induced current” value (mouse TRPV4 (mTRPV4); 4α-phorbol-12, 13-didecanoate-induced, n = 9) was “not increased”, the “Hill coefficient (inhibition)” value (mouse TRPV4 (mTRPV4); citral block of 4α-phorbol-12, 13-didecanoate-evoked current) was 0.9 and the Kd (mouse TRPV4 (mTRPV4); read-out: Inhibition KD, app) was 32 µM. The “log P (oil/water) coefficient” value [2] was “three”, the “Hill coefficient (activation)” value (mouse TRPV3 (mTRPV3)) was 22.3 and the “Reversibility of citral inhibition of agonist-evoked current” value (mouse TRPV3 (mTRPV3)) was “essentially irreversible”. For the same molecule, the “Increase of agonist-evoked current prior to onset of inhibition” value (mouse TRPV3 (mTRPV3); +100 mV) was 1.3±0.1 fold, the “Increase of agonist-evoked current prior to onset of inhibition” value (mouse TRPV3 (mTRPV3); −100 mV) was 1.7±0.3 fold and the Kd (mouse TRPV3 (mTRPV3); citral activation, nominal external calcium, read-out: Activation KD, app) was 926 µM. The “Hill coefficient (inhibition)” value (mouse TRPV3 (mTRPV3); citral block of 2-aminoethyldiphenyl borate-evoked current) was 4.0, the Kd (mouse TRPV3 (mTRPV3); citral block of current evoked by 700 µM 2-aminoethyldiphenyl borate, read-out: Inhibition KD, app) was 465 µM and the “Agonist efficacy I2-APB (100 µM)/Icitral (1 mM)” value (mouse TRPV3 (mTRPV3); fold larger, −40 mV, n = 6) was “I2-APB (100 µM)/Icitral (1 mM) 25±14 fold larger (n = 6; −40 mV)”. The “Time for >50% inhibition of peak TRP current in continued presence of citral” value (mouse TRPV3 (mTRPV3); n = 6) was no more than 6 s, the “Increase of inward ITRPV3 above baseline” value (mouse TRPV3 (mTRPV3); −40 mV) was 38 fold and the “Concentration at which therapeutic effects have been attributed” value [3] was 1 to 100 µM.
